{
  "source": "patent US9101679B2",
  "about": "“Sterilization method and apparatus” (TS03 Inc., priority 2009, dated 2015)",
  "key": {"[1]": {"tested_on": "G. stearothermophilus ATCC 7953 spores", "assay": "Sterile efficacy on inoculated lumens, half-cycle of each TSO3 cycle", "format": "cell-based", "details": "for sterility result in words, gas replacing ozone after hydrogen peroxide injection: all three cycles, gas injected after hydrogen peroxide", "description": "The test evaluated the sterile efficacy on inoculated devices. Inoculated wires were inserted in tubing and afterwards in pouches. The pouches were also placed at the top of the loading carriage in the sterilization chamber.\nThe same loads were used for the three series of tests performed: ozone, oxygen and nitric oxide. The length, diameter, material and type of tubing were different for each cycle and are described in Table 3. The inoculated lumens were placed in a special load representing an average load for the three cycles.\nThe lumens used to evaluate the sterile efficacy were inoculated according to protocol MCB-09-A07 rev 9. The wire method was used. The wires were inoculated with 10 μL of a G. stearothermophilus ATCC 7953 spores suspension of 1.0×10^6 to 2.5×10^6 UFC/10 μL. The inoculated wires were left to dry overnight at normal room conditions.\nTest loads were exposed to a half-cycle of each cycle. For the experiment with oxygen and nitrogen oxide, ozone was replaced by the gas to be tested. A burette was also plugged on the valve system in order to precisely determine the H2O2 injected volume.\nThe baseline of sterile efficacy on the inoculated lumens used in each cycle was established using only hydrogen peroxide. Cycles using hydrogen peroxide and ozone were performed to compare the efficacy of oxygen and nitrogen oxide to ozone.\nThe oxygen was injected in the chamber using the same system as that used for ozone. The ozone generator was turned off.\nThe NO was injected however directly in the chamber from an independent NO cylinder (Praxair). […] By doing so, the gas was forced into the chamber.\nAll tests were performed outside in order to limit possible dangers from accidental leaks. A NO detector was used. A long tube was plugged into the catalyst converter unit, to allow the NO to be eliminated far from the set-up. A calculation was performed (see below) to determine the number of valve injections necessary to obtain a concentration of 2 mg/L. • Valve volume: 3.3 mL (Volume calculated in R-1937) • NO Density NTP: 1.25 g/L • Sterilisation chamber volume: 125 L • Finale concentration desired: 2 mg/L • NO Pressure: 3 psig • Corrected volume: 3300×((14.7+3)/14.7)=3973.2 μL • Mass to be injected: 0.002 g/L×125 L=0.25 gno • Masse injected by each injection: 1.25 g/L×0.003974 L=4.9665×10^−3 g/injection • Number of injections required: 0.25 gno/4.9665×10^−3 g/injection=50 injections"}, "spores [2]": {"tested_on": "spores", "assay": "Sterilization by evaporated hydrogen peroxide solution alone or followed by ozone", "format": "cell-based", "description": "Indeed the evaporated hydrogen peroxide solution injected into the chamber is not sufficient to achieve sterilization, although a 4 log reduction in spores has been observed. […] Such complete sterilization could not be achieved using only the injection of evaporated hydrogen peroxide solution, independent of the amount of hydrogen peroxide solution used and the concentration of the solution. Moreover, high concentrations of hydrogen peroxide reduce compatibility with some instruments. […] In fact the dwelling time after hydrogen peroxide injection appears to have no effect on sterilization efficacy."}, "spores [3]": {"tested_on": "spores", "details": "3.4 mL per pulse; half-cycle of Cycle 1; Teflon 1 mm x 80 cm", "quoted_text": "In order to inject a high volume at once, a valve separated by Teflon tubing was used instead of the normally used microvalve (TSO3 #: AM-213-001). The tubing length was determined by the volume to be injected. Since the volume contained in the valve is significant, two sizes of valves were used. The first type (TSO3 #: CM-900-157) with an orifice of 0.062″, was used for a volume up to 1.5 mL. The second Neptune type, with an orifice of 0.156″, (TSO3 #: CM-900-156), was used for a volume up to 3.5 mL. The larger valve size also helps to push the large liquid volume into the chamber. For the 35 μL volume, a Burket 7616 micropump (TSO3 #: CM-113-001) was used. For the 23 μL volume, a larger, specially-made block was used.\nTwo cycles were used for this experiment. To test the sterility, Cycle 1 (half-cycle) was used, where the injection step of the conditioning phase was modified with a variation in volume and pulse for each attempt, as previously described. As for the condensation effect, Cycle 3, consisting of four phases, was utilized. This cycle was chosen due to the fact that a greater quantity of hydrogen peroxide was injected for the cycle, making it the worst case scenario. […] After exposure to a half-cycle of Cycle 1, the sterility of each lumen was determined according to MCB-09-A04 rev. 7 by quantitative recovery using the ultrasound technique followed by filtration. […]"}, "[4]": {"tested_on": "spores of G. stearothermophilus", "assay": "Estimate of spores inactivated by NO / NO2 alone", "format": "cell-based", "protocol": "In this experiment, the amount of NO injected was 2 mg/L. Considering that all NO molecules were transformed in NO2, a D-value of 1.9 minutes for a concentration of 2 mg/L of NO2, only 2.5 log of spores would have been inactivated by the NO2. This less than the 6 log present on the inoculated devices. In reality, the conversion rate of NO in NO2 is probably not 100%, and the D-value is more than 1.9 minutes. Thus the number of spores inactivated by NO only is probably more around 1 log."}, "[5]": {"tested_on": "spores of G. stearothermophilus", "details": "cited from earlier work"}},
  "note": "Entries after “also recorded” stand apart in the source; their conditions may differ. Read-outs that look alike come from different tables or passages of the source.",
  "data": [
    {"compound": "OO", "note": "[H2O2, hydrogen peroxide]", "values": [
      {"measurement": "Sterile lumens Cycle 1", "setting": "[1]; half-cycle of Cycle 1, Teflon lumen 1 mm x 80 cm, O3 or O2 2 mg/L, NO 2 mg/L", "value": 50, "unit": "%"},
      {"measurement": "Sterile lumens Cycle 2", "setting": "[1]; half-cycle of Cycle 2, stainless steel lumen 1 mm x 50 cm, O3 or O2 10 mg/L, NO 2 mg/L", "value": 12.5, "unit": "%"},
      {"measurement": "Sterile lumens Cycle 3", "setting": "[1]; half-cycle of Cycle 3, Teflon lumen 1 mm x 110 cm, O3 or O2 3 mg/L, NO 2 mg/L", "value": 16, "unit": "%"},
      {"measurement": "reduction in spores", "setting": "spores [2]; evaporated hydrogen peroxide solution only, no ozone", "value": 4, "unit": "log"},
      {"measurement": "spore count", "setting": "spores [3]", "value": "zero"}
    ]},
    {"compound": "[O]N=O", "note": "[NO2, nitrogen dioxide]", "values": [
      {"measurement": "spores inactivated by the NO2", "setting": "[4]; assuming all NO (2 mg/L) transformed into NO2 and a D-value of 1.9 minutes", "value": 2.5, "unit": "log"},
      {"measurement": "D-value", "setting": "[5]; 3 mg/L", "value": "approximately 1.9 minutes"},
      {"measurement": "D-value", "setting": "[5]; 5.12 mg/L NO2", "value": 0.3, "unit": "min"}
    ]},
    {"compound": "O=O", "note": "[oxygen]", "values": [
      {"measurement": "sterility result in words, gas replacing ozone after hydrogen peroxide injection", "setting": "[1]", "value": "ineffective to replace ozone; also recorded: Sterility was not achieved in two of the three cycles"}
    ]},
    {"compound": "O=[O+][O-]", "note": "[ozone]", "values": [
      {"measurement": "sterilization result in words", "setting": "spores [2]; 1-10 mg of ozone per liter of sterilization atmosphere added after evaporated hydrogen peroxide, SAL 10^-6", "value": "full and complete sterilization"}
    ]},
    {"compound": "Nitrogen monoxide", "values": [
      {"measurement": "spores inactivated by NO only", "setting": "[4]; 2 mg/L NO, conversion to NO2 probably not 100%", "value": "around 1 log"},
      {"measurement": "sterility result in words, gas replacing ozone after hydrogen peroxide injection", "setting": "[1]", "value": "complete sterility in all three cycles"}
    ]}
  ]
}
